The values that follow come from the supplement of paper PMC10307832.

Common to all, as to test: relative viability (nuclei count vs DMSO), 5 days (fraction); higher = more cells survive
Compound in experiment [1]: CC1=C(C(=NN1)C)CC2=C(C3=C(S2)N(C(=O)N(C3=O)C)CC(C)C)C(=O)N4C[C@@H](CO4)O + C[C@]1(O)C[C@@H](c2nc(-c3ccc4ccc(-c5ccccc5)nc4c3)c3c(N)nccn32)C1 [Linsitinib] (partner 1 µM)
The method in brief:
(§1)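 Relative viability equals treated-well nuclei counts divided by vehicle-well nuclei counts. Counts came from 4× images of lung cancer cell lines grown in 1536-well plates for 5 days after pin-tool dosing on the day after seeding. Dosing used one drug alone or a fixed anchor-drug dose plus five library-drug doses (not always all listed) in √10 steps, and values are medians of duplicate plates.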

Compound in experiment [2]: CC1=C(C(=NN1)C)CC2=C(C3=C(S2)N(C(=O)N(C3=O)C)CC(C)C)C(=O)N4C[C@@H](CO4)O + CC1(C)CCC(c2ccc(Cl)cc2)=C(CN2CCN(c3ccc(C(=O)NS(=O)(=O)c4ccc(N[C@H](CCN5CCOCC5)CSc5ccccc5)c(S(=O)(=O)C(F)(F)F)c4)cc3)CC2)C1 [Navitoclax] (partner 0.5 µM)
The method in brief:
as §1

Compound in experiment [3]: CC1=C(C(=NN1)C)CC2=C(C3=C(S2)N(C(=O)N(C3=O)C)CC(C)C)C(=O)N4C[C@@H](CO4)O + CC(=O)Nc1cccc(-n2c(=O)n(C3CC3)c(=O)c3c(Nc4ccc(I)cc4F)n(C)c(=O)c(C)c32)c1 [Trametinib] (partner 0.02 µM)
In short, it runs like this:
as §1

Compound in experiment [4]: CC1=C(C(=NN1)C)CC2=C(C3=C(S2)N(C(=O)N(C3=O)C)CC(C)C)C(=O)N4C[C@@H](CO4)O + CC(=O)c1c(C)c2cnc(Nc3ccc(N4CCNCC4)cn3)nc2n(C2CCCC2)c1=O [Palbociclib] (partner 0.5 µM)
The method in brief:
as §1

For the cell line PC-3 [JPC-3], the relative viability turned out to be 0.966 in experiment [1] (first compound 0.0025 µM); 0.945 in experiment [1] (first compound 0.007906 µM); 0.974 in experiment [1] (first compound 0.025 µM); 0.958 in experiment [1] (first compound 0.07906 µM); 1.01 in experiment [1] (first compound 0.25 µM); 0.898 in experiment [2] (first compound 0.0025 µM). Also, the relative viability in experiment [2] (first compound 0.007906 µM) amounted to 0.795; in experiment [2] (first compound 0.025 µM), 0.83; in experiment [2] (first compound 0.07906 µM), 0.827; in experiment [2] (first compound 0.25 µM), 0.906; in experiment [3] (first compound 0.0025 µM), 0.74; in experiment [3] (first compound 0.007906 µM), 0.649. For the same cell line, the relative viability in experiment [3] (first compound 0.025 µM) is 0.718; in experiment [3] (first compound 0.07906 µM), 0.678; in experiment [3] (first compound 0.25 µM) it was 0.682; in experiment [4] (first compound 0.0025 µM), 0.528; in experiment [4] (first compound 0.007906 µM), 0.502; in experiment [4] (first compound 0.025 µM), 0.539. Besides, the relative viability in experiment [4] (first compound 0.07906 µM) was found to be 0.533; in experiment [4] (first compound 0.25 µM), 0.524.
On to PC-14, for which the relative viability is 1.06 in experiment [1] (first compound 0.0025 µM); 1.02 in experiment [1] (first compound 0.007906 µM); 0.93 in experiment [1] (first compound 0.025 µM); 0.936 in experiment [1] (first compound 0.07906 µM); 0.94 in experiment [1] (first compound 0.25 µM); 1.02 in experiment [2] (first compound 0.0025 µM). The relative viability came out at 1.09 in experiment [2] (first compound 0.007906 µM); 1.02 in experiment [2] (first compound 0.025 µM); 1 in experiment [2] (first compound 0.07906 µM); 1.03 in experiment [2] (first compound 0.25 µM); 0.795 in experiment [3] (first compound 0.0025 µM); 0.839 in experiment [3] (first compound 0.007906 µM). The relative viability in experiment [3] (first compound 0.025 µM) is 0.784; in experiment [3] (first compound 0.07906 µM), 0.917; in experiment [3] (first compound 0.25 µM) it was 0.929; in experiment [4] (first compound 0.0025 µM), 0.453; in experiment [4] (first compound 0.007906 µM), 0.45; in experiment [4] (first compound 0.025 µM), 0.493. For the same cell line, the relative viability was 0.468 in experiment [4] (first compound 0.07906 µM) and 0.646 in experiment [4] (first compound 0.25 µM).
For the cell line RERF-LC-KJ, the relative viability in experiment [1] (first compound 0.0025 µM) was 0.973; in experiment [1] (first compound 0.007906 µM) it was 0.931; in experiment [1] (first compound 0.025 µM), 0.925; in experiment [1] (first compound 0.07906 µM) it was 0.899; in experiment [1] (first compound 0.25 µM), 0.95; in experiment [2] (first compound 0.0025 µM), 1.18. Besides, the relative viability in experiment [2] (first compound 0.007906 µM) is 0.99; in experiment [2] (first compound 0.025 µM), 1.01; in experiment [2] (first compound 0.07906 µM), 0.713; in experiment [2] (first compound 0.25 µM), 0.897; in experiment [3] (first compound 0.0025 µM), 0.898; in experiment [3] (first compound 0.007906 µM), 0.94. The relative viability in experiment [3] (first compound 0.025 µM) came to 0.838; in experiment [3] (first compound 0.07906 µM), 0.883; in experiment [3] (first compound 0.25 µM) it was 0.909; in experiment [4] (first compound 0.0025 µM) it was 1.12; in experiment [4] (first compound 0.007906 µM) it was 1.11; in experiment [4] (first compound 0.025 µM) it was 1.04. Further, the relative viability stood at 1.06 in experiment [4] (first compound 0.07906 µM) and 1.12 in experiment [4] (first compound 0.25 µM).
Take SK-LU-1: the relative viability in experiment [1] (first compound 0.0025 µM) came to 0.86; in experiment [1] (first compound 0.007906 µM), 0.712; in experiment [1] (first compound 0.025 µM), 0.711; in experiment [1] (first compound 0.07906 µM) it was 0.774; in experiment [1] (first compound 0.25 µM) it was 0.731; in experiment [2] (first compound 0.0025 µM), 0.717. The relative viability in experiment [2] (first compound 0.007906 µM) turned out to be 0.662; in experiment [2] (first compound 0.025 µM) it was 0.528; in experiment [2] (first compound 0.07906 µM), 0.744; in experiment [2] (first compound 0.25 µM), 0.545; in experiment [3] (first compound 0.0025 µM), 0.47; in experiment [3] (first compound 0.007906 µM), 0.409. The relative viability in experiment [3] (first compound 0.025 µM) was 0.326; in experiment [3] (first compound 0.07906 µM), 0.344; in experiment [3] (first compound 0.25 µM), 0.374; in experiment [4] (first compound 0.0025 µM) it was 0.375; in experiment [4] (first compound 0.007906 µM), 0.349; in experiment [4] (first compound 0.025 µM) it was 0.294. Further, the figures for the relative viability in experiment [4] (first compound 0.07906 µM) and in experiment [4] (first compound 0.25 µM) were 0.278 and 0.281, respectively.
Regarding SK-MES-1, the relative viability in experiment [1] (first compound 0.0025 µM) came to 1.05; in experiment [1] (first compound 0.007906 µM), 1.03; in experiment [1] (first compound 0.025 µM) it was 1.04; in experiment [1] (first compound 0.07906 µM), 1.15; in experiment [1] (first compound 0.25 µM) it was 1.14; in experiment [2] (first compound 0.0025 µM) it was 1.3. Moreover, the relative viability in experiment [2] (first compound 0.007906 µM) is 1.42; in experiment [2] (first compound 0.025 µM) it was 1.12; in experiment [2] (first compound 0.07906 µM), 1.28; in experiment [2] (first compound 0.25 µM) it was 1.33; in experiment [3] (first compound 0.0025 µM), 0.562; in experiment [3] (first compound 0.007906 µM), 0.607. Further, the relative viability in experiment [3] (first compound 0.025 µM) worked out at 0.604; in experiment [3] (first compound 0.07906 µM) it was 0.591; in experiment [3] (first compound 0.25 µM), 0.592; in experiment [4] (first compound 0.0025 µM), 0.358; in experiment [4] (first compound 0.007906 µM) it was 0.336; in experiment [4] (first compound 0.025 µM) it was 0.319. The figures for the relative viability in experiment [4] (first compound 0.07906 µM) and in experiment [4] (first compound 0.25 µM) were 0.329 and 0.333, respectively.
For the cell line SW 1573, the relative viability amounted to 0.869 in experiment [1] (first compound 0.0025 µM); 0.905 in experiment [1] (first compound 0.007906 µM); 0.869 in experiment [1] (first compound 0.025 µM); 0.804 in experiment [1] (first compound 0.07906 µM); 0.782 in experiment [1] (first compound 0.25 µM); 0.978 in experiment [2] (first compound 0.0025 µM). Besides, the relative viability turned out to be 1.1 in experiment [2] (first compound 0.007906 µM); 0.927 in experiment [2] (first compound 0.025 µM); 0.929 in experiment [2] (first compound 0.07906 µM); 1.12 in experiment [2] (first compound 0.25 µM); 0.496 in experiment [3] (first compound 0.0025 µM); 0.574 in experiment [3] (first compound 0.007906 µM). For the same cell line, the relative viability in experiment [3] (first compound 0.025 µM) turned out to be 0.622; in experiment [3] (first compound 0.07906 µM) it was 0.59; in experiment [3] (first compound 0.25 µM), 0.654; in experiment [4] (first compound 0.0025 µM), 0.469; in experiment [4] (first compound 0.007906 µM) it was 0.439; in experiment [4] (first compound 0.025 µM) it was 0.42. Moreover, the relative viability in experiment [4] (first compound 0.07906 µM) came out at 0.407; in experiment [4] (first compound 0.25 µM), 0.47.
Regarding UMC-11, the relative viability came to 1.01 in experiment [1] (first compound 0.0025 µM); 1 in experiment [1] (first compound 0.007906 µM); 0.845 in experiment [1] (first compound 0.025 µM); 0.793 in experiment [1] (first compound 0.07906 µM); 0.767 in experiment [1] (first compound 0.25 µM); 0.31 in experiment [2] (first compound 0.0025 µM). The relative viability amounted to 0.215 in experiment [2] (first compound 0.007906 µM); 0.233 in experiment [2] (first compound 0.025 µM); 0.211 in experiment [2] (first compound 0.07906 µM); 0.199 in experiment [2] (first compound 0.25 µM); 0.842 in experiment [3] (first compound 0.0025 µM); 0.84 in experiment [3] (first compound 0.007906 µM). The relative viability turned out to be 0.83 in experiment [3] (first compound 0.025 µM); 0.677 in experiment [3] (first compound 0.07906 µM); 0.993 in experiment [3] (first compound 0.25 µM); 0.333 in experiment [4] (first compound 0.0025 µM); 0.31 in experiment [4] (first compound 0.007906 µM); 0.296 in experiment [4] (first compound 0.025 µM). The relative viability in experiment [4] (first compound 0.07906 µM) amounted to 0.29; in experiment [4] (first compound 0.25 µM), 0.339.
